Target: Ras-related C3 botulinum toxin substrate 1 (Homo sapiens) (UniProt P63000)
Assay: inhibitors of activated mutant Rac1 GTP binding, dose response, biochemical, multiplex, GST-Rac1 beads, Bodipy-FL-GTP, flow cytometry (AID 1339)

`Cc1ccc(C)c(OCCn2cc(C(=O)O)c3ccccc32)c1` gave an EC50 of 0.222 µM.

`COc1ccccc1NCc1sc(C(=O)O)cc1C` showed an EC50 of 4.26 µM.

Work on `O=C(O)c1cn(CCOc2ccccc2)c2ccccc12` yielded an EC50 of 0.857 µM.

Compound `COc1cc(C(=O)OCC(=O)Nc2ccc3c(c2)OC(F)(F)O3)ccc1OCc1c(C)noc1C` has an EC50 of 14.2 µM.

With `N#Cc1c(-c2ccccc2)nc(SCC(=O)Nc2ccccc2)[nH]c1=O` the EC50 was 29.5 µM.

In the case of `Cc1cc(C)c(C)c(C(=O)c2ccccc2C(=O)O)c1C`, the EC50 is reported as 1.52 µM.

In the case of `CCN(CC)c1ccc2cc(-c3nc(-c4ccc(OC)cc4)cs3)c(=O)oc2c1`, the EC50 is reported as 0.553 µM.

Compound `CCOC(=O)c1cc([N+](=O)[O-])c([N+](=O)[O-])cc1NC(C)=O` has an EC50 of 31.5 µM.

`Cc1ccc(Nc2cc(C(=O)O)c3ccccc3n2)cc1C` was tested, and the EC50 was 5.56 µM.

With `CS(=O)(=O)c1ccc(C(=O)OCC(=O)NC(=O)C2CCCCC2)cc1[N+](=O)[O-]` the EC50 was 43.2 µM.

With `O=C(CSc1ncnc2scc(-c3ccccc3)c12)N1CCN(Cc2ccc3c(c2)OCO3)CC1` the EC50 was 61.1 µM.

In the case of `Cc1cc(C(=O)Cn2nc(C(=O)O)c3ccccc3c2=O)c(C)n1-c1ccc(OC(F)F)cc1`, the EC50 is reported as 3.55 µM.

In the case of `CCn1nc(C(=O)OCC(=O)c2cc(C)n(Cc3cccs3)c2C)c2ccccc2c1=O`, the EC50 is reported as 45.6 µM.

With `CNC(=S)N=Nc1c(O)[nH]c2ccccc12` the EC50 was 91.6 µM.

`O=C(C#Cc1ccccc1)c1cccc([N+](=O)[O-])c1` was tested, and the EC50 was 23.5 µM.

`Cc1ccc(SC(CC(=O)c2ccc(C(C)(C)C)cc2)C(=O)O)cc1` (stereo not given) gave an EC50 of 12.3 µM.

With `CCc1ccc(NS(=O)(=O)c2ccc3[nH]cc(C(=O)N4CCc5ccccc54)c(=O)c3c2)cc1` the EC50 was 20.6 µM.

Compound `O=C(C#Cc1ccc(F)cc1)c1ccc([N+](=O)[O-])cc1` has an EC50 of 3.92 µM.

`COc1ccc(C(=O)Nc2cc(Cl)ccc2C(=O)O)cc1` gave an EC50 of 22.1 µM.

`COc1ccccc1OCCn1cc(C(=O)O)c2ccc(Cl)cc21` showed an EC50 of 1.75 µM.

Work on `Cc1ccccc1C(=O)Nc1ccc2c(C#N)c3nc4ccccc4nc3n2c1` yielded an EC50 of 0.889 µM.

Compound `OC(CNCCc1ccc(Cl)cc1)COc1ccc2ccccc2c1` (stereo not given) has an EC50 of 39 µM.

`O=C(c1nnsc1S(=O)(=O)c1ccc(Cl)cc1)N1CCOCC1` showed an EC50 of 13.7 µM.

For `CC(C)(C)C#CC(=O)c1ccc([N+](=O)[O-])cc1`, the EC50 was 65.1 µM.

With `Cc1nn(Cc2ccccc2)c(Cl)c1C(=O)O` the EC50 was 21.7 µM.

With `CC(=O)c1c(C)[nH]c(C(=O)N2CCc3ccccc3C2)c1C` the EC50 was 2.53 µM.

Compound `COC(=O)c1cccnc1SCCc1ccccc1` has an EC50 of 36.6 µM.

With `CCOc1ccc(/C=C2\SC(N3CCc4ccccc4C3)=NC2=O)cc1` the EC50 was 10.6 µM.

Work on `O=C(C#Cc1ccccc1)c1ccc([N+](=O)[O-])cc1` yielded an EC50 of 6.48 µM.

For `O=C(O)c1ccccc1NCc1c(Cl)cccc1Cl`, the EC50 was 34.1 µM.

`Cc1ccc(C(C)C)c(OCCSc2nc3ccccc3n2CC(=O)O)c1` was tested, and the EC50 was 33.5 µM.

Compound `COc1cccc(NC(=O)COC(=O)/C=C/c2ccc(Cl)cc2Cl)c1` has an EC50 of 13.3 µM.

`COc1ccc(Cl)cc1NCc1sc(C(=O)O)cc1C` gave an EC50 of 2.19 µM.

With `CSc1ccc(/C=N/NC(=O)c2cc(O)cc(O)c2)cc1` the EC50 was 55.4 µM.

Compound `Cc1ccccc1OCCn1c(C)c(C(=O)O)c2ccccc21` has an EC50 of 0.625 µM.

In the case of `O=C(Nc1nnc(-c2ccc3c(c2)OCCO3)o1)c1ccc(Cc2ccccc2)cc1`, the EC50 is reported as 10.2 µM.

`O=C(O)c1ccccc1Sc1ncnc2sc3c(c12)CCC3` showed an EC50 of 1.08 µM.

Compound `Cc1ccc(-n2c(-c3cnccn3)n[nH]c2=S)c(Br)c1` has an EC50 of 28 µM.

`O=[N+]([O-])c1cc2oc3c(c2c(C=NCc2ccccc2)c1O)CCCC3` was tested, and the EC50 was 5.79 µM.

`O=C(O)/C=C/c1cn(Cc2ccccc2)nc1-c1cccs1` showed an EC50 of 1.94 µM.

For `Cc1cc(C)cc(OCCSc2nc3ccccc3n2CC(=O)O)c1`, the EC50 was 23.6 µM.

In the case of `O=C(O)c1cc(Sc2ccc(Cl)cc2)nc2ccccc12`, the EC50 is reported as 69.4 µM.

`COc1ccccc1OCc1cccc(C(=O)O)c1` showed an EC50 of 9.53 µM.

`Cc1cc(NC(=O)CSc2nc(-c3ccccc3)c(C#N)c(=O)[nH]2)no1` showed an EC50 of 12.9 µM.

With `COc1cccc(CNCc2sc(C(=O)O)cc2C)c1` the EC50 was 25.9 µM.

In the case of `CC(=O)Nc1cccc(C#CC(=O)c2ccc([N+](=O)[O-])cc2)c1`, the EC50 is reported as 14.2 µM.

`Cc1ccc(C(C)C)c(OCCn2cc(C(=O)O)c3ccccc32)c1` gave an EC50 of 0.635 µM.

Work on `CC(=O)c1ccc(C#CC(=O)c2ccc([N+](=O)[O-])cc2)cc1` yielded an EC50 of 1.22 µM.

`COc1ccc(OC)c(-c2c3cc(O)c(=O)cc-3oc3cc(O)c(O)cc23)c1` showed an EC50 of 0.28 µM.

For `Cc1cc(C(=O)Oc2ccccc2C(=O)O)c(C)o1`, the EC50 was 0.665 µM.

Compound `COc1ccc(C(=O)c2c(O)cc(-c3ccc(OC)cc3)oc2=O)cc1` has an EC50 of 3.57 µM.

For `Cc1cc(OCCSc2nc3ccccc3n2CC(=O)O)ccc1Cl`, the EC50 was 25.1 µM.

For `CCOC(=O)c1c(NC(=O)/C=C/c2ccc3c(c2)OCO3)sc(C)c1CC`, the EC50 was 30.1 µM.

Work on `CCCOc1ccc(OCCSc2nc3ccccc3n2CC(=O)O)cc1` yielded an EC50 of 35.6 µM.

In the case of `O=C(O)c1cc(Sc2ccc(F)cc2)nc2ccccc12`, the EC50 is reported as 46.8 µM.

Reference: PubChem BioAssay AID1339 (NMMLSC, 2008)
